This is an account of results in patent US10047105B2, “Gyrase inhibitors” (Merck Sharp & Dohme Corp., priority 2009, dated 2018).

One test concerns S. aureus ATCC 13709. Nature of the test: MIC, antibacterial potency, S. aureus. Type of test: cell-based.
For a further test, the system named is S. pneumoniae ATCC 51916. Nature of the test: MIC, S. pneumoniae. The format is cell-based.
[1] abbreviates: S. pneumoniae (Spn52), in µg/mL.

The structures appear in SMILES notation. ≈ marks a conversion by molar mass, not a printed value. Some results are limits rather than exact numbers.

As to `CCc1[nH]c2nc(Sc3cnc4nccnc4c3)nc(N3CC(NC(=O)c4csc(N)n4)C3)c2c1Cl` [700,453], in the test on S. aureus ATCC 13709 (S. aureus), the MIC, SA is ≤ 0.5 µg/mL. The MIC Spn52 with S. pneumoniae ATCC 51916 (S. pneumoniae) was ≤ 0.5 µg/mL.
Turning to `CCc1[nH]c2nc(Sc3cnc4nccnc4c3)nc(N3CC(NC(=O)OCc4ccccc4)C3)c2c1Br` [700,404], the MIC, SA in the test on S. aureus ATCC 13709 (S. aureus) was ≤ 0.5 µg/mL. Further, in the test with S. pneumoniae ATCC 51916 (S. pneumoniae), the MIC Spn52 was ≤ 0.5 µg/mL.
As for `CCOc1nc(Sc2nc(C(=O)O)co2)nc2[nH]c(CC)c(Br)c12` [700,292], in the test with S. aureus ATCC 13709 (S. aureus), the MIC, SA is > 64 µg/mL. Besides, the MIC Spn52 with S. pneumoniae ATCC 51916 (S. pneumoniae) is > 64 µg/mL.
Consider `CCc1[nH]c2nc(Oc3cncnc3)nc(Oc3cncnc3)c2c1Br.O=C(O)C(F)(F)F` [700,552], for which, in the test on S. aureus ATCC 13709 (S. aureus), the MIC, SA is ≤ 0.5 µg/mL. The same compound displayed an MIC Spn52 in the test with S. pneumoniae ATCC 51916 (S. pneumoniae) of 2 µg/mL.
With `CCc1[nH]c2nc(Sc3cnc4nccnc4c3)nc(N3CC[C@@H](N)C3)c2c1Cl` [700,618], in the test with S. aureus ATCC 13709 (S. aureus), the MIC, SA was ≤ 0.5 µg/mL. For the same compound, in the test with S. pneumoniae ATCC 51916 (S. pneumoniae), the MIC Spn52 was found to be 2 µg/mL (≈ 4.68 µM).
The like results for `CCc1[nH]c2nc(Sc3cncnc3)nc(N3CC4CNC4C3)c2c1Cl` (centres unmarked) [700,785] were, in that order, 16 µg/mL (≈ 41.2 µM) and 64 µg/mL (≈ 165 µM).
With `CCc1[nH]c2nc(Sc3cnc4c(c3)OCCN4C)nc(N3CC(N)C3)c2c1Cl.O=C(O)C(F)(F)F` [700,794], the “MIC, SA” value in the test with S. aureus ATCC 13709 (S. aureus (SA), in µg/mL) is recorded as 16. For the same compound, in the test with S. pneumoniae ATCC 51916 (setting [1]), the “MIC Spn52” value came out at 32.
On to `CCc1[nH]c2nc(Sc3cnc4nccnc4c3)nc(N3CC(CNC(=O)[C@@H]4CCC(=O)N4)C3)c2c1Cl` [700,520], for which the MIC, SA in the test on S. aureus ATCC 13709 (S. aureus) turned out to be 8 µg/mL (≈ 14.9 µM). For the same compound, the MIC Spn52 against S. pneumoniae ATCC 51916 (S. pneumoniae) turned out to be 16 µg/mL (≈ 29.7 µM).
For `CCc1[nH]c2nc(Sc3cnc4nccnc4c3)nc(N3CC4CC3CN4)c2c1Cl.O=C(O)C(F)(F)F` (centres unmarked) [700,655], the MIC, SA in the test with S. aureus ATCC 13709 (S. aureus) is > 64 µg/mL. Besides, the MIC Spn52 against S. pneumoniae ATCC 51916 (S. pneumoniae) was 2 µg/mL.
The matching figures for `CCc1[nH]c2nc(Sc3cnc4ccoc4c3)nc(N3CCC(N)C3)c2c1Br.O=C(O)C(F)(F)F` (centres unmarked) [700,679]: > 64 µg/mL and > 64 µg/mL.
The matching figures for `CCc1[nH]c2nc(Sc3nc(C(=O)OC)cs3)nc(O)c2c1Br` [700,282]: ≤ 0.5 µg/mL and 4 µg/mL (≈ 9.63 µM).
For the compound `CCNc1ccc(Sc2nc(OCC)c3c(Cl)c(CC)[nH]c3n2)nn1` [700,325], the MIC, SA against S. aureus ATCC 13709 (S. aureus) was > 64 µg/mL. In addition, in the test with S. pneumoniae ATCC 51916 (S. pneumoniae), the MIC Spn52 is > 64 µg/mL.
As for `CCc1[nH]c2nc(Sc3nc(C(=O)N4CCOCC4)cs3)nc(N3CCN(C(C)=O)CC3)c2c1Cl.O=C(O)C(F)(F)F` [700,365], the MIC, SA against S. aureus ATCC 13709 (S. aureus) was > 64 µg/mL. In addition, the MIC Spn52 against S. pneumoniae ATCC 51916 (S. pneumoniae) was > 64 µg/mL.
For `CCOc1nc(Sc2ccc(NC3CC3)nn2)nc2[nH]c(CC)c(Cl)c12` [700,324], the MIC, SA against S. aureus ATCC 13709 (S. aureus) is > 64 µg/mL. The compound further had an MIC Spn52 in the test with S. pneumoniae ATCC 51916 (S. pneumoniae) of 64 µg/mL (≈ 164 µM).
`CCc1[nH]c2nc(Oc3cccc(C#N)c3)nc(C(C)=O)c2c1Cl` [700,893]: the “MIC, SA” value against S. aureus ATCC 13709 (S. aureus (SA), in µg/mL) is 4. Besides, the “MIC Spn52” value in the test on S. pneumoniae ATCC 51916 (setting [1]) was 8.
Compound `CCc1[nH]c2nc(Sc3cncnc3)nc(N3CC(N)C3)c2c1Cl` [700,574] returned an MIC, SA against S. aureus ATCC 13709 (S. aureus) of 4 µg/mL (≈ 11.1 µM). Further, in the test on S. pneumoniae ATCC 51916 (S. pneumoniae), the MIC Spn52 was found to be 16 µg/mL (≈ 44.2 µM).
With `CCc1[nH]c2nc(Sc3cc(=O)n(CCC4CCCCC4)c(=O)[nH]3)nc(N3CC(O)C3)c2c1Br` [700,412], the MIC, SA against S. aureus ATCC 13709 (S. aureus) is > 64 µg/mL. For the same compound, the MIC Spn52 against S. pneumoniae ATCC 51916 (S. pneumoniae) is > 64 µg/mL.
For `CCc1[nH]c2nc(Oc3cncnc3)nc(N3CC(N)C3)c2c1Br` [700,877], the “MIC, SA” value with S. aureus ATCC 13709 (S. aureus (SA), in µg/mL) was 4. Moreover, the “MIC Spn52” value in the test with S. pneumoniae ATCC 51916 (setting [1]) is 8.
On to `CCc1[nH]c2nc(Sc3nc4ncccc4c(=O)[nH]3)nc(N3CC(O)C3)c2c1Cl` [700,353], for which the MIC, SA against S. aureus ATCC 13709 (S. aureus) is > 64 µg/mL. Moreover, the MIC Spn52 against S. pneumoniae ATCC 51916 (S. pneumoniae) was > 64 µg/mL.
For `CCOC(=O)Cc1nc(N2CCC(O)C2)c2c(Cl)c(CC)[nH]c2n1` (centres unmarked) [700,544], the MIC, SA in the test on S. aureus ATCC 13709 (S. aureus) was > 64 µg/mL. Besides, the MIC Spn52 against S. pneumoniae ATCC 51916 (S. pneumoniae) was > 64 µg/mL.
In turn, `Fc1ccc(Oc2nc(Nc3cccnc3)nc3[nH]cc(Br)c23)c(F)c1.O=C(O)C(F)(F)F` [700,315] came in with an MIC, SA with S. aureus ATCC 13709 (S. aureus) of 16 µg/mL. The compound also came in with an MIC Spn52 in the test on S. pneumoniae ATCC 51916 (S. pneumoniae) of 64 µg/mL.
Regarding `CCOc1nc(Sc2cnc3cccnc3n2)nc2[nH]c(CC)c(Cl)c12` [700,298], in the test with S. aureus ATCC 13709 (S. aureus), the MIC, SA stood at 2 µg/mL (≈ 5.17 µM). In the test with S. pneumoniae ATCC 51916 (S. pneumoniae), this compound gave an MIC Spn52 of 8 µg/mL (≈ 20.7 µM).
For `CCc1[nH]c2nc(Oc3cnc4c(cnn4C)c3)nc(Oc3cccnc3)c2c1Cl` [700,615], the MIC, SA with S. aureus ATCC 13709 (S. aureus) was ≤ 0.5 µg/mL. The compound further gave an MIC Spn52 with S. pneumoniae ATCC 51916 (S. pneumoniae) of 4 µg/mL (≈ 9.48 µM).
As to `CCc1[nH]c2nc(Sc3nc(C(=O)O)co3)nc(N3CC(O)C3)c2c1Cl.O=C(O)C(F)(F)F.O=C(O)C(F)(F)F` [700,395], the MIC, SA against S. aureus ATCC 13709 (S. aureus) is > 64 µg/mL. Besides, the MIC Spn52 with S. pneumoniae ATCC 51916 (S. pneumoniae) is > 64 µg/mL.
For the compound `CCc1[nH]c2nc(Oc3cncnc3)nc(Oc3cncc(OC)c3)c2c1Cl.O=C(O)C(F)(F)F` [700,648], the MIC, SA with S. aureus ATCC 13709 (S. aureus) was ≤ 0.5 µg/mL. The MIC Spn52 against S. pneumoniae ATCC 51916 (S. pneumoniae) came to 2 µg/mL.
`CCc1[nH]c2nc(Sc3cnc4cccnc4c3)nc(N3C[C@@H]4[C@@H](N)[C@@H]4C3)c2c1Cl` [700,817]: the “MIC, SA” value against S. aureus ATCC 13709 (S. aureus (SA), in µg/mL) was “<=0.5”. The “MIC Spn52” value with S. pneumoniae ATCC 51916 (setting [1]) is listed as “<=0.5”.
Regarding `CCc1[nH]c2nc(Sc3nc(C(=O)O)cs3)nc(N3CCOCC3)c2c1Cl.O=C(O)C(F)(F)F` [700,396], in the test with S. aureus ATCC 13709 (S. aureus), the MIC, SA was > 64 µg/mL. Besides, in the test with S. pneumoniae ATCC 51916 (S. pneumoniae), the MIC Spn52 is > 64 µg/mL.
Turning to `CCOc1nc(Nc2cnc3c(cnn3C(C)C)c2)nc2[nH]c(CC)c(Br)c12.O=C(O)C(F)(F)F` [700,381], the MIC, SA in the test on S. aureus ATCC 13709 (S. aureus) worked out at 1 µg/mL. The MIC Spn52 in the test with S. pneumoniae ATCC 51916 (S. pneumoniae) is 8 µg/mL.
